PubChem BioAssay (NCI)
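Where inhibition never reached the appropriate level, the endpoint shown equals the highest concentration tested. Otherwise, values were interpolated linearly from a five-concentration, 48-hour dose response in 96-well plates. TGI: total growth inhibition.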

How the values were obtained:
Assay in all cases: growth of human tumour cells (NCI), 48 h
CAKI-1 renal = system: CAKI-1 renal
MDA-MB-231 breast = system: MDA-MB-231 breast
PC-3 prostate = system: PC-3 prostate
SK-MEL-28 melanoma = system: SK-MEL-28 melanoma
SK-OV-3 ovarian = system: SK-OV-3 ovarian
OVCAR-3 ovarian = system: OVCAR-3 ovarian
BT-549 breast = system: BT-549 breast
HCT-15 colon = system: HCT-15 colon
HCT-116 colon = system: HCT-116 colon
A498 renal = system: A498 renal
M14 melanoma = system: M14 melanoma
T-47D breast = system: T-47D breast
SF-268 CNS = system: SF-268 CNS
HOP-62 NSCLC = system: HOP-62 NSCLC
NCI-H460 lung = system: NCI-H460 lung
DU-145 prostate = system: DU-145 prostate
UACC-257 melanoma = system: UACC-257 melanoma
U251 CNS = system: U251 CNS
SN12C renal = system: SN12C renal
HOP-92 NSCLC = system: HOP-92 NSCLC
SK-MEL-5 melanoma = system: SK-MEL-5 melanoma
HT29 colon = system: HT29 colon
NCI-H23 lung = system: NCI-H23 lung
SF-295 CNS = system: SF-295 CNS
LOX IMVI melanoma = system: LOX IMVI melanoma
MALME-3M melanoma = system: MALME-3M melanoma
SNB-19 CNS = system: SNB-19 CNS
EKVX NSCLC = system: EKVX NSCLC
KM12 colon = system: KM12 colon
TK-10 renal = system: TK-10 renal
MDA-MB-435 = system: MDA-MB-435
HL-60(TB) leukemia = system: HL-60(TB) leukemia
SR leukemia = system: SR leukemia
MDA-N = system: MDA-N
786-0 renal = system: 786-0 renal
SF-539 CNS = system: SF-539 CNS
RPMI-8226 leukemia = system: RPMI-8226 leukemia
CCRF-CEM leukemia = system: CCRF-CEM leukemia
OVCAR-5 ovarian = system: OVCAR-5 ovarian
COLO 205 colon = system: COLO 205 colon
HCC-2998 colon = system: HCC-2998 colon
MOLT-4 leukemia = system: MOLT-4 leukemia
A549 NSCLC = system: A549 NSCLC
OVCAR-8 ovarian = system: OVCAR-8 ovarian
ACHN renal = system: ACHN renal
NCI-H226 lung = system: NCI-H226 lung
MCF7 breast = system: MCF7 breast
NCI/ADR-RES ovarian = system: NCI/ADR-RES ovarian
UO-31 renal = system: UO-31 renal
SW-620 colon = system: SW-620 colon
UACC-62 melanoma = system: UACC-62 melanoma
IGROV1 ovarian = system: IGROV1 ovarian
HS 578T breast = system: HS 578T breast
NCI-H522 lung = system: NCI-H522 lung
SK-MEL-2 melanoma = system: SK-MEL-2 melanoma
OVCAR-4 ovarian = system: OVCAR-4 ovarian
K-562 leukemia = system: K-562 leukemia
SNB-75 CNS = system: SNB-75 CNS
RXF 393 renal = system: RXF 393 renal

## CC1(C)OC(=O)C(=Cc2ccc([N+](=O)[O-])s2)C(=O)O1
CAKI-1 renal
  TGI: 29.5 µM
MDA-MB-231 breast
  TGI: 36.4 µM
PC-3 prostate
  TGI: 38.1 µM
SK-MEL-28 melanoma
  TGI: 34.6 µM
SK-OV-3 ovarian
  TGI: 65.3 µM
OVCAR-3 ovarian
  TGI: 23.2 µM
BT-549 breast
  TGI: 26.8 µM
HCT-15 colon
  TGI: 14.2 µM
HCT-116 colon
  TGI: 9.84 µM
A498 renal
  TGI: 54.7 µM
M14 melanoma
  TGI: 26.5 µM
T-47D breast
  TGI: 38 µM
SF-268 CNS
  TGI: 29.5 µM
HOP-62 NSCLC
  TGI: 35.1 µM
NCI-H460 lung
  TGI: > 100 µM
DU-145 prostate
  TGI: 30.9 µM
UACC-257 melanoma
  TGI: 35.8 µM
U251 CNS
  TGI: 30.4 µM
SN12C renal
  TGI: 31.6 µM
HOP-92 NSCLC
  TGI: 37.9 µM
SK-MEL-5 melanoma
  TGI: 30 µM
HT29 colon
  TGI: 38.5 µM
NCI-H23 lung
  TGI: 39.1 µM
SF-295 CNS
  TGI: 30.4 µM
LOX IMVI melanoma
  TGI: 32.6 µM
MALME-3M melanoma
  TGI: 34.2 µM
SNB-19 CNS
  TGI: 31.6 µM
EKVX NSCLC
  TGI: 31.8 µM
KM12 colon
  TGI: 29 µM
TK-10 renal
  TGI: 31.5 µM
MDA-MB-435
  TGI: 30.4 µM
HL-60(TB) leukemia
  TGI: 5.59 µM
SR leukemia
  TGI: 6.31 µM
MDA-N
  TGI: 32.5 µM
786-0 renal
  TGI: 32.2 µM
SF-539 CNS
  TGI: 29.4 µM
RPMI-8226 leukemia
  TGI: 37.1 µM
CCRF-CEM leukemia
  TGI: 88.6 µM
OVCAR-5 ovarian
  TGI: 31.2 µM
COLO 205 colon
  TGI: 31 µM
HCC-2998 colon
  TGI: 24.7 µM
MOLT-4 leukemia
  TGI: 24.6 µM
A549 NSCLC
  TGI: > 100 µM
OVCAR-8 ovarian
  TGI: 31.3 µM
ACHN renal
  TGI: 27.3 µM
NCI-H226 lung
  TGI: 60.5 µM
MCF7 breast
  TGI: 68.4 µM
NCI/ADR-RES ovarian
  TGI: 39.8 µM
UO-31 renal
  TGI: 23.6 µM
SW-620 colon
  TGI: 4.1 µM

## COc1cc([N+](=O)[O-])ccc1N1C(=O)C2c3[nH]c4ccccc4c3C3CCC(C(C)(C)C)CC3C2C1=O (stereo not drawn)
CAKI-1 renal
  TGI: 24.9 µM
MDA-MB-231 breast
  TGI: 75.5 µM
PC-3 prostate
  TGI: > 100 µM
UACC-62 melanoma
  TGI: > 100 µM
IGROV1 ovarian
  TGI: > 100 µM
SK-MEL-28 melanoma
  TGI: 34.7 µM
SK-OV-3 ovarian
  TGI: > 100 µM
OVCAR-3 ovarian
  TGI: > 100 µM
BT-549 breast
  TGI: > 100 µM
HCT-15 colon
  TGI: > 100 µM
HCT-116 colon
  TGI: > 100 µM
A498 renal
  TGI: > 100 µM
M14 melanoma
  TGI: 40.5 µM
HOP-62 NSCLC
  TGI: 81.2 µM
NCI-H460 lung
  TGI: > 100 µM
DU-145 prostate
  TGI: > 100 µM
UACC-257 melanoma
  TGI: > 100 µM
U251 CNS
  TGI: 25.4 µM
SN12C renal
  TGI: > 100 µM
HS 578T breast
  TGI: 43.4 µM
HOP-92 NSCLC
  TGI: > 100 µM
SK-MEL-5 melanoma
  TGI: > 100 µM
HT29 colon
  TGI: > 100 µM
NCI-H522 lung
  TGI: > 100 µM
NCI-H23 lung
  TGI: > 100 µM
LOX IMVI melanoma
  TGI: > 100 µM
SK-MEL-2 melanoma
  TGI: > 100 µM
MALME-3M melanoma
  TGI: > 100 µM
EKVX NSCLC
  TGI: > 100 µM
KM12 colon
  TGI: > 100 µM
TK-10 renal
  TGI: > 100 µM
MDA-MB-435
  TGI: > 100 µM
HL-60(TB) leukemia
  TGI: > 100 µM
SR leukemia
  TGI: > 100 µM
MDA-N
  TGI: > 100 µM
OVCAR-4 ovarian
  TGI: > 100 µM
SF-539 CNS
  TGI: > 100 µM
RPMI-8226 leukemia
  TGI: > 100 µM
CCRF-CEM leukemia
  TGI: > 100 µM
OVCAR-5 ovarian
  TGI: > 100 µM
COLO 205 colon
  TGI: > 100 µM
HCC-2998 colon
  TGI: > 100 µM
MOLT-4 leukemia
  TGI: > 100 µM
A549 NSCLC
  TGI: > 100 µM
OVCAR-8 ovarian
  TGI: > 100 µM
ACHN renal
  TGI: > 100 µM
NCI-H226 lung
  TGI: > 100 µM
MCF7 breast
  TGI: > 100 µM
NCI/ADR-RES ovarian
  TGI: > 100 µM
UO-31 renal
  TGI: > 100 µM
SW-620 colon
  TGI: > 100 µM

## COc1ccc(Nc2nc3ccc(C(F)(F)F)cc3nc2C(=O)O)cc1
CAKI-1 renal
  TGI: > 100 µM
MDA-MB-231 breast
  TGI: > 100 µM
PC-3 prostate
  TGI: 92.4 µM
UACC-62 melanoma
  TGI: 67.3 µM
IGROV1 ovarian
  TGI: 39.5 µM
K-562 leukemia
  TGI: > 100 µM
SK-MEL-28 melanoma
  TGI: > 100 µM
SK-OV-3 ovarian
  TGI: 71.5 µM
OVCAR-3 ovarian
  TGI: 47.4 µM
BT-549 breast
  TGI: 49.4 µM
HCT-15 colon
  TGI: > 100 µM
HCT-116 colon
  TGI: > 100 µM
A498 renal
  TGI: 57.2 µM
M14 melanoma
  TGI: > 100 µM
T-47D breast
  TGI: > 100 µM
SF-268 CNS
  TGI: > 100 µM
HOP-62 NSCLC
  TGI: > 100 µM
NCI-H460 lung
  TGI: 83.7 µM
DU-145 prostate
  TGI: > 100 µM
SNB-75 CNS
  TGI: 78.6 µM
UACC-257 melanoma
  TGI: 96.7 µM
U251 CNS
  TGI: > 100 µM
SN12C renal
  TGI: > 100 µM
HOP-92 NSCLC
  TGI: 92 µM
SK-MEL-5 melanoma
  TGI: > 100 µM
HT29 colon
  TGI: > 100 µM
NCI-H23 lung
  TGI: 93.3 µM
SF-295 CNS
  TGI: 89.4 µM
LOX IMVI melanoma
  TGI: > 100 µM
SK-MEL-2 melanoma
  TGI: > 100 µM
MALME-3M melanoma
  TGI: > 100 µM
RXF 393 renal
  TGI: 62.6 µM
EKVX NSCLC
  TGI: > 100 µM
KM12 colon
  TGI: 70.9 µM
TK-10 renal
  TGI: > 100 µM
MDA-MB-435
  TGI: > 100 µM
MDA-N
  TGI: > 100 µM
OVCAR-4 ovarian
  TGI: > 100 µM
786-0 renal
  TGI: > 100 µM
SF-539 CNS
  TGI: 75.9 µM
RPMI-8226 leukemia
  TGI: 66.5 µM
CCRF-CEM leukemia
  TGI: 63.5 µM
OVCAR-5 ovarian
  TGI: 84.9 µM
COLO 205 colon
  TGI: > 100 µM
HCC-2998 colon
  TGI: 50 µM
MOLT-4 leukemia
  TGI: 98.6 µM
A549 NSCLC
  TGI: > 100 µM
OVCAR-8 ovarian
  TGI: > 100 µM
NCI-H226 lung
  TGI: > 100 µM
MCF7 breast
  TGI: > 100 µM
NCI/ADR-RES ovarian
  TGI: > 100 µM
SW-620 colon
  TGI: > 100 µM

## COc1cc2c(cc1OC)C(=O)/C(=C/c1cc(Cl)cc(Cl)c1)C2
CAKI-1 renal
  TGI: > 100 µM
MDA-MB-231 breast
  TGI: > 100 µM
PC-3 prostate
  TGI: > 100 µM
UACC-62 melanoma
  TGI: > 95.8 µM
IGROV1 ovarian
  TGI: > 100 µM
K-562 leukemia
  TGI: > 44.4 µM
SK-MEL-28 melanoma
  TGI: > 100 µM
SK-OV-3 ovarian
  TGI: > 54.6 µM
OVCAR-3 ovarian
  TGI: > 100 µM
BT-549 breast
  TGI: > 100 µM
HCT-15 colon
  TGI: > 100 µM
HCT-116 colon
  TGI: > 100 µM
A498 renal
  TGI: > 100 µM
M14 melanoma
  TGI: > 100 µM
T-47D breast
  TGI: > 100 µM
SF-268 CNS
  TGI: > 100 µM
HOP-62 NSCLC
  TGI: > 100 µM
NCI-H460 lung
  TGI: > 100 µM
DU-145 prostate
  TGI: > 100 µM
UACC-257 melanoma
  TGI: > 100 µM
U251 CNS
  TGI: > 100 µM
SN12C renal
  TGI: > 100 µM
HS 578T breast
  TGI: > 100 µM
HOP-92 NSCLC
  TGI: 99.6 µM
SK-MEL-5 melanoma
  TGI: > 24.1 µM
HT29 colon
  TGI: > 100 µM
NCI-H23 lung
  TGI: > 100 µM
LOX IMVI melanoma
  TGI: > 100 µM
SK-MEL-2 melanoma
  TGI: > 95 µM
MALME-3M melanoma
  TGI: > 59.7 µM
RXF 393 renal
  TGI: > 100 µM
SNB-19 CNS
  TGI: > 100 µM
EKVX NSCLC
  TGI: > 100 µM
KM12 colon
  TGI: > 21.4 µM
TK-10 renal
  TGI: > 100 µM
MDA-MB-435
  TGI: > 19.6 µM
HL-60(TB) leukemia
  TGI: > 100 µM
MDA-N
  TGI: 4.86 µM
OVCAR-4 ovarian
  TGI: 98.1 µM
786-0 renal
  TGI: > 89.7 µM
SF-539 CNS
  TGI: 9.94 µM
RPMI-8226 leukemia
  TGI: > 100 µM
CCRF-CEM leukemia
  TGI: > 100 µM
OVCAR-5 ovarian
  TGI: > 100 µM
COLO 205 colon
  TGI: > 100 µM
HCC-2998 colon
  TGI: > 100 µM
MOLT-4 leukemia
  TGI: > 100 µM
A549 NSCLC
  TGI: > 100 µM
OVCAR-8 ovarian
  TGI: > 100 µM
ACHN renal
  TGI: > 100 µM
NCI-H226 lung
  TGI: > 100 µM
MCF7 breast
  TGI: > 100 µM
NCI/ADR-RES ovarian
  TGI: 10.4 µM
UO-31 renal
  TGI: > 100 µM
SW-620 colon
  TGI: > 100 µM
